Tests used:
[1] = Microsomal stability, human liver microsomes (predicted hepatic clearance); conditions: predicted from in vitro microsomal stability data
[2] = molecular target: GLP-1R (Homo sapiens, UniProt P43220); assay: GLP-1R activation: cAMP increase in CHO cells stably expressing GLP-1R; assay type: cell-based; conditions: cAMP increase, CHO cells stably expressing GLP-1R, 10 point dose response, 30 minutes incubation; read-out: EC50
Chain of GLP-1R (P43220 24-463): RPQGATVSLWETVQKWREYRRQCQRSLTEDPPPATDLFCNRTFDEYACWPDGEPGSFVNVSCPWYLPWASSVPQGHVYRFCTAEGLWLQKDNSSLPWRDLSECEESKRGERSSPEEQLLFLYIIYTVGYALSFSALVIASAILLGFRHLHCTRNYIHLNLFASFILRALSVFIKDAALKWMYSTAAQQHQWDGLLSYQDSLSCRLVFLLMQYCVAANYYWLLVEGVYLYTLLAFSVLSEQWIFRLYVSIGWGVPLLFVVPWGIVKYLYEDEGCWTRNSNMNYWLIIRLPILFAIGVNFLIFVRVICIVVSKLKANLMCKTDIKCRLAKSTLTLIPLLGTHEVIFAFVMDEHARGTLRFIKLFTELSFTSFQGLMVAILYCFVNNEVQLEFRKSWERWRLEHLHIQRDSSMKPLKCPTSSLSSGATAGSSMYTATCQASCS

CC(C)(Cn1c(Cc2ccc(-c3cccc(OCc4ccc(C#N)cc4F)n3)c(F)c2)nc2ccc(C(=O)O)cc21)C(F)F [Example 295, 2-(4-(6-((4-cyano-2-fluorobenzyl)oxy)pyridin-2-yl)-3-fluorobenzyl)-1-(3,3-difluoro-2,2-dimethylpropyl)-1H-benzo[d]imidazole-6-carboxylic acid]
Predicted Hepatic Clearance (Pred. Cl.) [1]: 8.3 mL/min/kg
EC50 [2]: 2.12 nM

COCCn1c(Cc2ccc(-c3cccc(OCc4ccc(C#N)cc4OCC(F)(F)F)n3)cc2F)nc2ccc(C(=O)O)cc21 [Example 236, 2-(4-(6-((4-cyano-2-(2,2,2-trifluoroethoxy)benzyl)oxy)pyridin-2-yl)-2-fluorobenzyl)-1-(2-methoxyethyl)-1H-benzo[d]imidazole-6-carboxylic acid]
Predicted Hepatic Clearance (Pred. Cl.) [1]: <1.83 mL/min/kg
EC50 [2]: 306 nM

COCCn1c(Cc2ccc(-c3cccc(OCc4ccc(C#N)cc4F)n3)c(F)c2F)nc2ccc(C(=O)O)cc21 [Example 45, 2-(4-(6-((4-cyano-2-fluorobenzyl)oxy)pyridin-2-yl)-2,3-difluorobenzyl)-1-(2-methoxyethyl)-1H-benzo[d]imidazole-6-carboxylic acid]
Predicted Hepatic Clearance (Pred. Cl.) [1]: 3.83 mL/min/kg
EC50 [2]: 36 nM

O=C(O)c1ccc2nc(Cc3ccc(-c4ccnc(OCc5ccc(C(F)(F)F)cc5F)n4)c(F)c3)n(C[C@@H]3CCO3)c2c1 [Example 788]
Predicted Hepatic Clearance (Pred. Cl.) [1]: 5.5 mL/min/kg
EC50 [2]: 0.17 nM

O=C(O)c1cc(F)c2nc(Cc3ccc(-c4cccc(OCc5ccc(C(F)F)cc5F)n4)cc3F)n(CC34CC(CO3)C4)c2c1 [Example 646]
Predicted Hepatic Clearance (Pred. Cl.) [1]: 5.83 mL/min/kg
EC50 [2]: 1.78 nM

COCCn1c(Cc2ccc(-c3cccc(OCc4ccc(Cl)cc4F)n3)cc2F)nc2ccc(C(=O)O)cc21 [Example 478, 2-(4-(6-((4-chloro-2-fluorobenzyl)oxy)pyridin-2-yl)-2-fluorobenzyl)-1-(2-methoxyethyl)-1H-benzo[d]imidazole-6-carboxylic acid]
Predicted Hepatic Clearance (Pred. Cl.) [1]: 3.17 mL/min/kg
EC50 [2]: 9.19 nM

CNC(=O)C(Cn1c(Cc2ccc(-c3cccc(OCc4ccc(C#N)cc4F)n3)cc2F)nc2ccc(C(=O)O)cc21)OC (single isomer, unassigned) [Example 337, 2-(4-(6-((4-cyano-2-fluorobenzyl)oxy)pyridin-2-yl)-2-fluorobenzyl)-1-(2-methoxy-3-(methylamino)-3-oxopropyl)-1H-benzo[d]imidazole-6-carboxylic acid]
Predicted Hepatic Clearance (Pred. Cl.) [1]: 4.83 mL/min/kg
EC50 [2]: 13.7 nM

COCCn1c(Cc2ccc(-c3cccc(OCc4ccc(Cl)cc4OCC(F)(F)F)n3)cc2F)nc2ccc(C(=O)O)cc21 [Example 267, 2-(4-(6-((4-chloro-2-(2,2,2-trifluoroethoxy)benzyl)oxy)pyridin-2-yl)-2-fluorobenzyl)-1-(2-methoxyethyl)-1H-benzo[d]imidazole-6-carboxylic acid]
Predicted Hepatic Clearance (Pred. Cl.) [1]: 4.58 mL/min/kg
EC50 [2]: 172 nM

N#Cc1ccc(COc2cccc(-c3cc(F)c(Cc4nc5ccc(C(=O)O)c(F)c5n4C[C@@H]4CCO4)cc3F)n2)c(F)c1 [Example 632]
Predicted Hepatic Clearance (Pred. Cl.) [1]: 1.83 mL/min/kg
EC50 [2]: 0.24 nM

N#Cc1ccc(COc2nccc(-c3ccc(Cc4nc5c(F)cc(C(=O)O)cc5n4CC45CC(CO4)C5)cc3F)n2)c(F)c1 [Example 650]
Predicted Hepatic Clearance (Pred. Cl.) [1]: 11 mL/min/kg
EC50 [2]: 19.6 nM

CCOc1cc(C#N)ccc1COc1cccc(-c2ccc(Cc3nc4ccc(C(=O)O)cc4n3CCOC)c(F)c2)n1 [Example 238, 2-(4-(6-((4-cyano-2-ethoxybenzyl)oxy)pyridin-2-yl)-2-fluorobenzyl)-1-(2-methoxyethyl)-1H-benzo[d]imidazole-6-carboxylic acid]
Predicted Hepatic Clearance (Pred. Cl.) [1]: 8.67 mL/min/kg
EC50 [2]: 12 nM

COCCn1c(Cc2ccc(-c3cccc(OCc4nccnc4OC)n3)cc2F)nc2ccc(C(=O)O)cc21 [Example 493, 2-(2-fluoro-4-(6-((3-methoxypyrazin-2-yl)methoxy)pyridin-2-yl)benzyl)-1-(2-methoxyethyl)-1H-benzo[d]imidazole-6-carboxylic acid]
Predicted Hepatic Clearance (Pred. Cl.) [1]: 19.2 mL/min/kg
EC50 [2]: 255 nM

N#Cc1ccc(COc2cccc(-c3ccc(Cc4nc5ccc(C(=O)O)cc5n4CC4(C(F)F)CC4)cc3F)n2)c(F)c1 [Example 528, 2-(4-(6-((4-cyano-2-fluorobenzyl)oxy)pyridin-2-yl)-3-fluorobenzyl)-1-((1-(difluoromethyl)cyclopropyl)methyl)-1H-benzo[d]imidazole-6-carboxylic acid]
Predicted Hepatic Clearance (Pred. Cl.) [1]: 7.5 mL/min/kg
EC50 [2]: 0.45 nM

N#Cc1ccc(COc2cccc(-c3cc(F)c(Cc4nc5ccc(C(=O)O)cc5n4C[C@@H]4CCO4)cc3F)n2)cn1 [Example 807]
Predicted Hepatic Clearance (Pred. Cl.) [1]: 3.33 mL/min/kg
EC50 [2]: 0.18 nM

N#Cc1ccc(COc2cccc(-c3ccc(Cc4nc5ccc(C(=O)O)cc5n4C[C@H]4CCS4(=O)=O)cc3)n2)c(F)c1 (racemic) [Example 475, 2-(4-(6-((4-cyano-2-fluorobenzyl)oxy)pyridin-2-yl)benzyl)-1-((1,1-dioxidothietan-2-yl)methyl)-1H-benzo[d]imidazole-6-carboxylic acid]
Predicted Hepatic Clearance (Pred. Cl.) [1]: 2 mL/min/kg
EC50 [2]: 325 nM

N#Cc1ccc(COc2nccc(-c3cc(F)c(Cc4nc5c(F)cc(C(=O)O)cc5n4CC4(CF)CC4)cc3F)n2)c(F)c1 [Example 412, 2-(4-(2-((4-cyano-2-fluorobenzyl)oxy)pyrimidin-4-yl)-2,5-difluorobenzyl)-4-fluoro-1-((1-(fluoromethyl)cyclopropyl)methyl)-1H-benzo[d]imidazole-6-carboxylic acid]
Predicted Hepatic Clearance (Pred. Cl.) [1]: <1.83 mL/min/kg
EC50 [2]: 0.33 nM

CCn1c(Cc2ccc(-c3cccc(OCc4ccc(C#N)cc4F)n3)cc2F)nc2ccc(C(=O)O)cc21 [Example 242, 2-(4-(6-((4-cyano-2-fluorobenzyl)oxy)pyridin-2-yl)-2-fluorobenzyl)-1-ethyl-1H-benzo[d]imidazole-6-carboxylic acid]
Predicted Hepatic Clearance (Pred. Cl.) [1]: <1.83 mL/min/kg
EC50 [2]: 18.4 nM

COCCn1c(Cc2ccc(-c3cccc(OCc4cc(C(F)(F)F)ccc4OC)n3)cc2F)nc2ccc(C(=O)O)cc21 [Example 470, 2-(2-fluoro-4-(6-((2-methoxy-5-(trifluoromethyl)benzyl)oxy)pyridin-2-yl)benzyl)-1-(2-methoxyethyl)-1H-benzo[d]imidazole-6-carboxylic acid]
Predicted Hepatic Clearance (Pred. Cl.) [1]: <1.83 mL/min/kg
EC50 [2]: 1250 nM

N#Cc1ccc(COc2cccc(-c3cc(CO)c(Cc4nc5ccc(C(=O)O)cc5n4C[C@@H]4CCO4)cc3F)n2)c(F)c1 [Example 775]
Predicted Hepatic Clearance (Pred. Cl.) [1]: 3.17 mL/min/kg
EC50 [2]: 0.1 nM

N#Cc1ccc(COc2cccc(-c3cc(F)c(Cc4nc5ccc(C(=O)O)cc5n4C4COCCOC4)cc3F)n2)c(F)c1 [Example 702]
Predicted Hepatic Clearance (Pred. Cl.) [1]: 2.67 mL/min/kg
EC50 [2]: 8.14 nM

CO[C@@H]1CCCC[C@@H]1n1c(Cc2cc(F)c(-c3cccc(OCc4ccc(C#N)cc4F)n3)cc2F)nc2ccc(C(=O)O)cc21 [Example 725]
Predicted Hepatic Clearance (Pred. Cl.) [1]: 9.5 mL/min/kg
EC50 [2]: 3.68 nM

COCCn1c(Cc2cc(F)c(-c3cccc(OCc4cc(Cl)ccc4F)n3)cc2F)nc2ccc(C(=O)O)cc21 [Example 660]
Predicted Hepatic Clearance (Pred. Cl.) [1]: 4.17 mL/min/kg
EC50 [2]: 50.5 nM

COCCn1c(Cc2cc(F)c(-c3ccc(F)c(OCc4ccc(C(F)(F)F)cc4F)n3)cc2F)nc2c(F)cc(C(=O)O)cc21 [Example 761]
Predicted Hepatic Clearance (Pred. Cl.) [1]: 1.83 mL/min/kg
EC50 [2]: 0.51 nM

O=C(O)c1ccc2nc(Cc3ccc(-c4ccc(F)c(OCc5ccc(C(F)F)cc5F)n4)cc3F)n(C[C@@H]3CCO3)c2c1 [Example 773]
Predicted Hepatic Clearance (Pred. Cl.) [1]: 1.83 mL/min/kg
EC50 [2]: 0.12 nM

COC(CN)Cn1c(Cc2ccc(-c3cccc(OCc4ccc(C#N)cc4F)n3)cc2F)nc2ccc(C(=O)O)cc21 (single isomer, unassigned) [Example 340, 1-(3-amino-2-methoxypropyl)-2-(4-(6-((4-cyano-2-fluorobenzyl)oxy)pyridin-2-yl)-2-fluorobenzyl)-1H-benzo[d]imidazole-6-carboxylic acid]
Predicted Hepatic Clearance (Pred. Cl.) [1]: <1.83 mL/min/kg
EC50 [2]: 44.1 nM

COCCn1c(Cc2cc(F)c(-c3cccc(OCc4cc(F)c(C(F)(F)F)cc4F)n3)cc2F)nc2ccc(C(=O)O)cc21 [Example 867]
Predicted Hepatic Clearance (Pred. Cl.) [1]: 1.83 mL/min/kg
EC50 [2]: 2.41 nM

N#Cc1ccc(COc2cccc(-c3cc(F)c(Cc4nc5ccc(C(=O)O)cc5n4Cc4ccccn4)cc3F)n2)c(F)c1 [Example 311, 2-(4-(6-((4-cyano-2-fluorobenzyl)oxy)pyridin-2-yl)-2,5-difluorobenzyl)-1-(pyridin-2-ylmethyl)-1H-benzo[d]imidazole-6-carboxylic acid]
Predicted Hepatic Clearance (Pred. Cl.) [1]: 7 mL/min/kg
EC50 [2]: 95.6 nM

COCCn1c(Cc2ccc(-c3cccc(OCc4ccccc4NC(=O)OC(C)(C)C)n3)cc2F)nc2ccc(C(=O)O)cc21 [Example 506, 2-(4-(6-((2-((tert-butoxycarbonyl)amino)benzyl)oxy)pyridin-2-yl)-2-fluorobenzyl)-1-(2-methoxyethyl)-1H-benzo[d]imidazole-6-carboxylic acid]
Predicted Hepatic Clearance (Pred. Cl.) [1]: 12.5 mL/min/kg
EC50 [2]: 2180 nM

O=C(O)c1cc(F)c2nc(Cc3cc(F)c(-c4cccc(OCc5ccc(C(F)(F)F)cc5F)n4)cc3F)n(Cc3ncco3)c2c1 [Example 783]
Predicted Hepatic Clearance (Pred. Cl.) [1]: 1.83 mL/min/kg
EC50 [2]: 0.11 nM

COCCn1c(Cc2cc(F)c(-c3cccc(OCc4ccc(C#N)cc4F)n3)cc2F)nc2cc(C)c(C(=O)O)cc21 [Example 926, 2-(4-(6-((4-cyano-2-fluorobenzyl)oxy)pyridin-2-yl)-2,5-difluorobenzyl)-1-(2-methoxyethyl)-5-methyl-1H-benzo[d]imidazole-6-carboxylic acid]
Predicted Hepatic Clearance (Pred. Cl.) [1]: 1.83 mL/min/kg
EC50 [2]: 11.8 nM

Reference: patent publication US11702404B2, “GLP-1R modulating compounds” (priority 2019, dated 2023)
